{"source": "patent US20160271126A1", "about": "“PHARMACEUTICAL COMPOSITION” (Hoffmann-La Roche Inc., priority 2013, published 2016)", "key": {"Solubility of bitopertin": {"experiment": "Solubility of bitopertin", "assay_type": "physicochemical", "source_text": "(§1) Being a BCS 2 molecule (according to the Biopharmaceutics Classification System, wherein the molecule has high permeability and low solubility), the API particles size distribution has been identified as a major critical quality attribute of the drug substance. […] Thus, micronized API was selected for development of a suitable formulation."}, "[1]": {"experiment": "Biopharmaceutics Classification System class", "assay_type": "physicochemical", "design": "key: 2: the molecule has high permeability and low solubility", "source_text": "as §1"}}, "data": [{"smiles": "C[C@H](Oc1ccc(S(C)(=O)=O)cc1C(=O)N1CCN(c2ncc(C(F)(F)F)cc2F)CC1)C(F)(F)F", "note": "[Bitopertin]", "values": [{"measurement": "solubility in aqueous buffers and in water", "setting": "Solubility of bitopertin; aqueous buffers and water", "value": "practically insoluble"}, {"measurement": "solubility in polar organic solvents", "setting": "Solubility of bitopertin; polar organic solvents", "value": "freely soluble"}, {"measurement": "BCS class (Biopharmaceutics Classification System)", "setting": "[1]", "value": 2}]}]}
